{"source": "paper PMC6979384", "about": "“Characterization of the plant homeodomain (PHD) reader family for their histone tail interactions” (Epigenetics & Chromatin, 2020)", "test_in_all_cases": "Histone peptide microarray", "format_in_all_cases": "binding, human", "key": {"AIRE (PP)": {"system": "AIRE (PP)", "conditions": "GST-tagged AIRE (PP); sheet Array Heatmap; each array performed twice, total n = 4", "description": "(§1) To more comprehensively define the histone interactions of the 31 PHD readers identified from the domain microarray analyses, we probed each on an alternate microarray platform containing a library of 293 synthetic histone peptides with single or combinatorial PTMs (Additional file 2: Figure S4 and Additional file 3: Table S2).\n(§2) The 31 GST-tagged PHD readers identified in the PHD finger domain array were expressed and purified as previously. Histone peptide arrays and peptide pulldown assays were conducted as recently described (specifically, the optimized protocol from Petell et al. for the former).\n(§3) Supplementary file 13072_2020_328_MOESM3_ESM.xlsx: Additional file 3: Table S2. […] Excel Tab Peptide List is a compiled list of the entire 293 histone peptide library with amino acid sequence ranges. […] Each number corresponds to the peptide number designated in Peptide List. Excel Tab Average Signals is a compiled set of binding data: chromatin reader at 0.5 μM vs. entire 293 peptide library. Data is presented as the average and standard deviation of 4 replicates. The average signals are colored to indicate signal intensity with green being strong and white being weak/low. […] Key: red= stronger relative binding; blue = weaker relative binding. Excel Tab Array info summary is a table summarizing the domains, sequence coverage, array signal range, and noise for each of the GST-tagged readers assayed on the peptide microarrays."}, "BAZ2B": {"system": "BAZ2B", "conditions": "GST-tagged BAZ2B; sheet Array Heatmap; each array performed twice, total n = 4", "description": "as §1, §2, §3"}, "BPTF (PB)": {"system": "BPTF (PB)", "conditions": "GST-tagged BPTF (PB = PHD + Bromodomain); sheet Array Heatmap; each array performed twice, total n = 4", "description": "as §1, §2, §3"}, "CHD4 (PPCC)": {"system": "CHD4 (PPCC)", "conditions": "GST-tagged CHD4 (PPCC = Dual PHD + Dual Chromodomain); sheet Array Heatmap; each array performed twice, total n = 4", "description": "as §1, §2, §3"}, "CHD5 (PCC)": {"system": "CHD5 (PCC)", "conditions": "GST-tagged CHD5 (PCC = PHD + Dual Chromodomain); sheet Array Heatmap; each array performed twice, total n = 4", "description": "as §1, §2, §3"}, "CHD5 (PPCC)": {"system": "CHD5 (PPCC)", "conditions": "GST-tagged CHD5 (PPCC = Dual PHD + Dual Chromodomain); sheet Array Heatmap; each array performed twice, total n = 4", "description": "as §1, §2, §3"}, "DIDO1": {"system": "DIDO1", "conditions": "GST-tagged DIDO1; sheet Array Heatmap; each array performed twice, total n = 4", "description": "as §1, §2, §3"}, "DPF2 (PPC2W2)": {"system": "DPF2 (PPC2W2)", "conditions": "GST-tagged DPF2 (PPC2W2 = Dual PHD + C2W2-type Zn-finger); sheet Array Heatmap; each array performed twice, total n = 4", "description": "as §1, §2, §3"}, "ING1": {"system": "ING1", "conditions": "GST-tagged ING1; sheet Array Heatmap; each array performed twice, total n = 4", "description": "as §1, §2, §3"}, "ING2": {"system": "ING2", "conditions": "GST-tagged ING2; sheet Array Heatmap; each array performed twice, total n = 4", "description": "as §1, §2, §3"}, "ING3": {"system": "ING3", "conditions": "GST-tagged ING3; sheet Array Heatmap; each array performed twice, total n = 4", "description": "as §1, §2, §3"}, "ING4": {"system": "ING4", "conditions": "GST-tagged ING4; sheet Array Heatmap; each array performed twice, total n = 4", "description": "as §1, §2, §3"}, "ING5": {"system": "ING5", "conditions": "GST-tagged ING5; sheet Array Heatmap; each array performed twice, total n = 4", "description": "as §1, §2, §3"}, "KDM4C (TTP)": {"system": "KDM4C (TTP)", "conditions": "GST-tagged KDM4C (TTP = Tandem Tudor domain + PHD); sheet Array Heatmap; each array performed twice, total n = 4", "description": "as §1, §2, §3"}, "KDM5A (1)": {"system": "KDM5A (1)", "conditions": "GST-tagged KDM5A (1); sheet Array Heatmap; each array performed twice, total n = 4", "description": "as §1, §2, §3"}, "KDM5A (3)": {"system": "KDM5A (3)", "conditions": "GST-tagged KDM5A (3); sheet Array Heatmap; each array performed twice, total n = 4", "description": "as §1, §2, §3"}, "KDM5B (1)": {"system": "KDM5B (1)", "conditions": "GST-tagged KDM5B (1); sheet Array Heatmap; each array performed twice, total n = 4", "description": "as §1, §2, §3"}, "KDM5B (3)": {"system": "KDM5B (3)", "conditions": "GST-tagged KDM5B (3); sheet Array Heatmap; each array performed twice, total n = 4", "description": "as §1, §2, §3"}, "KDM7A": {"system": "KDM7A", "conditions": "GST-tagged KDM7A; sheet Array Heatmap; each array performed twice, total n = 4", "description": "as §1, §2, §3"}, "MLL5": {"system": "MLL5", "conditions": "GST-tagged MLL5; sheet Array Heatmap; each array performed twice, total n = 4", "description": "as §1, §2, §3"}, "MORC3 (CW)": {"system": "MORC3 (CW)", "conditions": "GST-tagged MORC3 (CW = CW-type Zn-finger); sheet Array Heatmap; each array performed twice, total n = 4", "description": "as §1, §2, §3"}, "PHF13": {"system": "PHF13", "conditions": "GST-tagged PHF13; sheet Array Heatmap; each array performed twice, total n = 4", "description": "as §1, §2, §3"}, "PHF21A": {"system": "PHF21A", "conditions": "GST-tagged PHF21A; sheet Array Heatmap; each array performed twice, total n = 4", "description": "as §1, §2, §3"}, "PHF23": {"system": "PHF23", "conditions": "GST-tagged PHF23; sheet Array Heatmap; each array performed twice, total n = 4", "description": "as §1, §2, §3"}, "PHF2": {"system": "PHF2", "conditions": "GST-tagged PHF2; sheet Array Heatmap; each array performed twice, total n = 4", "description": "as §1, §2, §3"}, "PHF8": {"system": "PHF8", "conditions": "GST-tagged PHF8; sheet Array Heatmap; each array performed twice, total n = 4", "description": "as §1, §2, §3"}, "PHRF1 (RP)": {"system": "PHRF1 (RP)", "conditions": "GST-tagged PHRF1 (RP); sheet Array Heatmap; each array performed twice, total n = 4", "description": "as §1, §2, §3"}, "RAG2": {"system": "RAG2", "conditions": "GST-tagged RAG2; sheet Array Heatmap; each array performed twice, total n = 4", "description": "as §1, §2, §3"}, "SP140L": {"system": "SP140L", "conditions": "GST-tagged SP140L; sheet Array Heatmap; each array performed twice, total n = 4", "description": "as §1, §2, §3"}, "TAF3": {"system": "TAF3", "conditions": "GST-tagged TAF3; sheet Array Heatmap; each array performed twice, total n = 4", "description": "as §1, §2, §3"}, "TRIM66 (PB)": {"system": "TRIM66 (PB)", "conditions": "GST-tagged TRIM66 (PB = PHD + Bromodomain); sheet Array Heatmap; each array performed twice, total n = 4", "description": "as §1, §2, §3"}}}
{"substance": "H3K4ac: H3 1-20 [Peptide H3K4ac]", "values": [{"measurement": "Array Heatmap signal (histone peptide microarray)", "setting": "AIRE (PP)", "result": 0.3833}, {"measurement": "Array Heatmap signal (histone peptide microarray)", "setting": "BAZ2B", "result": 0.4282}, {"measurement": "Array Heatmap signal (histone peptide microarray)", "setting": "BPTF (PB)", "result": 0.3314}, {"measurement": "Array Heatmap signal (histone peptide microarray)", "setting": "CHD4 (PPCC)", "result": 0.511}, {"measurement": "Array Heatmap signal (histone peptide microarray)", "setting": "CHD5 (PCC)", "result": 0.7194}, {"measurement": "Array Heatmap signal (histone peptide microarray)", "setting": "CHD5 (PPCC)", "result": 0.5057}, {"measurement": "Array Heatmap signal (histone peptide microarray)", "setting": "DIDO1", "result": 0.6919}, {"measurement": "Array Heatmap signal (histone peptide microarray)", "setting": "DPF2 (PPC2W2)", "result": 0.663}, {"measurement": "Array Heatmap signal (histone peptide microarray)", "setting": "ING1", "result": 0.5138}, {"measurement": "Array Heatmap signal (histone peptide microarray)", "setting": "ING2", "result": 0.6074}, {"measurement": "Array Heatmap signal (histone peptide microarray)", "setting": "ING3", "result": 0.4516}, {"measurement": "Array Heatmap signal (histone peptide microarray)", "setting": "ING4", "result": 0.4245}, {"measurement": "Array Heatmap signal (histone peptide microarray)", "setting": "ING5", "result": 0.3289}, {"measurement": "Array Heatmap signal (histone peptide microarray)", "setting": "KDM4C (TTP)", "result": 0.4265}, {"measurement": "Array Heatmap signal (histone peptide microarray)", "setting": "KDM5A (1)", "result": 0.429}, {"measurement": "Array Heatmap signal (histone peptide microarray)", "setting": "KDM5A (3)", "result": 0.4174}, {"measurement": "Array Heatmap signal (histone peptide microarray)", "setting": "KDM5B (1)", "result": 0.5705}, {"measurement": "Array Heatmap signal (histone peptide microarray)", "setting": "KDM5B (3)", "result": 0.4727}, {"measurement": "Array Heatmap signal (histone peptide microarray)", "setting": "KDM7A", "result": 0.3036}, {"measurement": "Array Heatmap signal (histone peptide microarray)", "setting": "MLL5", "result": 0.5593}, {"measurement": "Array Heatmap signal (histone peptide microarray)", "setting": "MORC3 (CW)", "result": 0.3459}, {"measurement": "Array Heatmap signal (histone peptide microarray)", "setting": "PHF13", "result": 0.5951}, {"measurement": "Array Heatmap signal (histone peptide microarray)", "setting": "PHF21A", "result": 0.424}, {"measurement": "Array Heatmap signal (histone peptide microarray)", "setting": "PHF23", "result": 0.5477}, {"measurement": "Array Heatmap signal (histone peptide microarray)", "setting": "PHF2", "result": 0.603}, {"measurement": "Array Heatmap signal (histone peptide microarray)", "setting": "PHF8", "result": 0.3449}, {"measurement": "Array Heatmap signal (histone peptide microarray)", "setting": "PHRF1 (RP)", "result": 0.4419}, {"measurement": "Array Heatmap signal (histone peptide microarray)", "setting": "RAG2", "result": 0.2316}, {"measurement": "Array Heatmap signal (histone peptide microarray)", "setting": "SP140L", "result": 0.3065}, {"measurement": "Array Heatmap signal (histone peptide microarray)", "setting": "TAF3", "result": 0.248}, {"measurement": "Array Heatmap signal (histone peptide microarray)", "setting": "TRIM66 (PB)", "result": 0.5857}]}
